Measured values reported in PubChem BioAssay AID1963967 (Molecular Pharmacology Branch, DTP, NCI, 2024).

Test system: 855422-203-R-J1-PDC spheroids with HUVEC/MSC, viability
Test: Anticancer human tumor 855422-203-R-J1-PDC patient-derived bladder carcinoma cell line growth inhibition [PI3K]
Details: for IC50: curve of first compound; for viability, T/C: stronger effect = lower value
Summary of the method: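 Tumor cells grown as multi-cell spheroids with HUVEC endothelial cells and MSC fibroblast-like stroma were treated with targeted agents combined with inavolisib, alpelisib, duvelisib or copanlisib. Doses fell in half-log steps from near clinical Cmax, else from 10 microM. Viability was measured.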

[1] = second compound 0.0316 µM, first compound 0.0316 µM
[2] = second compound 0.0316 µM, first compound 0.1 µM
[3] = second compound 0.0316 µM, first compound 0.316 µM
[4] = second compound 0.0316 µM, first compound 1 µM
[5] = second compound 0.0316 µM, first compound 3.16 µM
[6] = second compound 0.0316 µM, first compound 10 µM
[7] = second compound 0.1 µM, first compound 0.0316 µM
[8] = second compound 0.1 µM, first compound 0.1 µM
[9] = second compound 0.1 µM, first compound 0.316 µM
[10] = second compound 0.1 µM, first compound 1 µM
[11] = second compound 0.1 µM, first compound 3.16 µM
[12] = second compound 0.1 µM, first compound 10 µM
[13] = second compound 0.316 µM, first compound 0.0316 µM
[14] = second compound 0.316 µM, first compound 0.1 µM
[15] = second compound 0.316 µM, first compound 0.316 µM
[16] = second compound 0.316 µM, first compound 1 µM
[17] = second compound 0.316 µM, first compound 3.16 µM
[18] = second compound 0.316 µM, first compound 10 µM
[19] = second compound 1 µM, first compound 0.0316 µM
[20] = second compound 1 µM, first compound 0.1 µM
[21] = second compound 1 µM, first compound 0.316 µM
[22] = second compound 1 µM, first compound 1 µM
[23] = second compound 1 µM, first compound 3.16 µM
[24] = second compound 1 µM, first compound 10 µM
[25] = second compound 3.16 µM, first compound 0.0316 µM
[26] = second compound 3.16 µM, first compound 0.1 µM
[27] = second compound 3.16 µM, first compound 0.316 µM
[28] = second compound 3.16 µM, first compound 1 µM
[29] = second compound 3.16 µM, first compound 3.16 µM
[30] = second compound 3.16 µM, first compound 10 µM
[31] = second compound 10 µM, first compound 0.0316 µM
[32] = second compound 10 µM, first compound 0.1 µM
[33] = second compound 10 µM, first compound 0.316 µM
[34] = second compound 10 µM, first compound 1 µM
[35] = second compound 10 µM, first compound 3.16 µM
[36] = second compound 10 µM, first compound 10 µM
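Also: agents incubated with spheroids for one week before read-out.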
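For viability, T/C in this document: 100% = DMSO vehicle-treated control wells.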

## Cn1ncc(Cl)c1-c1cc(C(=O)NC(CN)Cc2cccc(F)c2)sc1Cl (centres undefined) + Cc1nc(NC(=O)N2CCCC2C(N)=O)sc1-c1ccnc(C(C)(C)C(F)(F)F)c1
Second compound 0.0316 µM
  IC50: 1020 nM
Second compound 0.1 µM
  IC50: 1160 nM
Second compound 0.316 µM
  IC50: 893 nM
Second compound 1 µM
  IC50: 637 nM
Second compound 3.16 µM
  IC50: < 31.6 nM
Second compound 10 µM
  IC50: < 31.6 nM
[1]
  viability, T/C: 100%
[2]
  viability, T/C: 78%
[3]
  viability, T/C: 71%
[4]
  viability, T/C: 50.1%
[5]
  viability, T/C: 32.6%
[6]
  viability, T/C: 9.93%
[7]
  viability, T/C: 89.6%
[8]
  viability, T/C: 77.6%
[9]
  viability, T/C: 71.8%
[10]
  viability, T/C: 50.9%
[11]
  viability, T/C: 32.9%
[12]
  viability, T/C: 9.68%
[13]
  viability, T/C: 89.3%
[14]
  viability, T/C: 74.6%
[15]
  viability, T/C: 64.8%
[16]
  viability, T/C: 52.4%
[17]
  viability, T/C: 25.8%
[18]
  viability, T/C: 7.56%
[19]
  viability, T/C: 64.8%
[20]
  viability, T/C: 65.3%
[21]
  viability, T/C: 55.5%
[22]
  viability, T/C: 46.5%
[23]
  viability, T/C: 21.3%
[24]
  viability, T/C: 3.26%
[25]
  viability, T/C: 46.9%
[26]
  viability, T/C: 43%
[27]
  viability, T/C: 41.9%
[28]
  viability, T/C: 31.4%
[29]
  viability, T/C: 13.9%
[30]
  viability, T/C: 2.81%
[31]
  viability, T/C: 25.8%
[32]
  viability, T/C: 23.4%
[33]
  viability, T/C: 20.3%
[34]
  viability, T/C: 16.3%
[35]
  viability, T/C: 9.69%
[36]
  viability, T/C: 0.43%

## Cn1nccc1Nc1nccc(-c2ccn(C(CO)c3ccc(Cl)c(F)c3)c(=O)c2)n1 (centres undefined) + Cc1nc(NC(=O)N2CCCC2C(N)=O)sc1-c1ccnc(C(C)(C)C(F)(F)F)c1
Second compound 0.0316 µM
  IC50: 9480 nM
Second compound 0.1 µM
  IC50: 8220 nM
Second compound 0.316 µM
  IC50: 6990 nM
Second compound 1 µM
  IC50: 4270 nM
Second compound 3.16 µM
  IC50: < 31.6 nM
Second compound 10 µM
  IC50: < 31.6 nM
[1]
  viability, T/C: 106%
[2]
  viability, T/C: 95.9%
[3]
  viability, T/C: 103%
[4]
  viability, T/C: 89%
[5]
  viability, T/C: 86.4%
[6]
  viability, T/C: 47.5%
[7]
  viability, T/C: 99.3%
[8]
  viability, T/C: 93.3%
[9]
  viability, T/C: 94.8%
[10]
  viability, T/C: 85.9%
[11]
  viability, T/C: 85%
[12]
  viability, T/C: 43.2%
[13]
  viability, T/C: 96%
[14]
  viability, T/C: 89.3%
[15]
  viability, T/C: 96.4%
[16]
  viability, T/C: 92.2%
[17]
  viability, T/C: 87.9%
[18]
  viability, T/C: 32.8%
[19]
  viability, T/C: 70.1%
[20]
  viability, T/C: 70.1%
[21]
  viability, T/C: 63.4%
[22]
  viability, T/C: 67.5%
[23]
  viability, T/C: 61.5%
[24]
  viability, T/C: 17.9%
[25]
  viability, T/C: 42.3%
[26]
  viability, T/C: 39.6%
[27]
  viability, T/C: 40.7%
[28]
  viability, T/C: 35.2%
[29]
  viability, T/C: 26.9%
[30]
  viability, T/C: 10.1%
[31]
  viability, T/C: 24.6%
[32]
  viability, T/C: 21.6%
[33]
  viability, T/C: 19.4%
[34]
  viability, T/C: 14.4%
[35]
  viability, T/C: 8.05%
[36]
  viability, T/C: 4.78%
